Assay results: patent US20230285374A1, “THERAPEUTIC METHODS USING VADADUSTAT” (Akebia Therapeutics, Inc., priority 2019, published 2023)

Assays:
[1] = tested on: anemic DD-CKD patients with incident dialysis and limited ESA exposure; experiment: Phase 3 Incident DD-CKD (Correction/Conversion) trial, vadadustat vs darbepoetin alfa; format: in vivo, human; conditions: for Ferritin, mean / Hepcidin, mean / TSAT, mean: Incident trial
Method: Two randomized Phase 3, open-label, sponsor-blind, active-controlled non-inferiority (NI) trials were conducted in anemic DD-CKD patients with incident dialysis and limited ESA exposure (Correction/Conversion trial) and with prevalent dialysis and established ESA treatment (Conversion trial). The primary safety endpoint was prespecified as the time to first major adverse cardiovascular event (MACE) (all-cause mortality, non-fatal MI, or non-fatal stroke) pooled across the two trials. Primary and key secondary efficacy endpoints were mean change in Hb from baseline [BL] to wks 24-36 and to wks 40-52 between two treatment arms, respectively.
Phase 3, randomized, open-label, active-controlled study of the efficacy and safety of vadadustat versus darbepoetin alfa for the maintenance treatment of anemia after the correction of hemoglobin (Hb) or conversion from current ESA therapy in subjects who have recently initiated dialysis treatment for DD-CKD. Following a Screening period of up to 8 weeks (56 days), subjects who met all inclusion and none of the exclusion criteria were randomized 1:1 to vadadustat or darbepoetin alfa.
Randomization were stratified by: • Geographic region (United States [US] versus European Union [EU] versus Rest of World [ROW]). • New York Heart Association congestive heart failure (CHF) Class 0 (no CHF) or I versus II or III. • Study entry hemoglobin (Hb) level (<9.5 or ≥9.5 g/dL).
Following randomization, there were 4 periods during the study: • Correction/Conversion Period (Weeks 0 to 23): initial period on study medication. • Maintenance Period (Weeks 24 to 52): period on study medication during which efficacy was assessed (primary evaluation period: Weeks 24 to 36; secondary evaluation period: Weeks 40 to 52). • Long-term Treatment Period (Weeks 53 to End of Treatment [EOT]): continued study medication to assess long-term safety. • Follow-up (EOT+4 weeks): post-treatment visit (either in person or via telephone) for safety.
Inclusion Criteria: Subjects met the following criteria: • ≥18 years of age. • Initiated chronic maintenance dialysis (either peritoneal or hemodialysis) for end-stage kidney disease within 16 weeks prior to Screening. • Mean screening hemoglobin (Hb) between 8.0 and 11.0 g/dL (inclusive), as determined by the average of 2 Hb values measured by the central laboratory during Screening. • Serum ferritin ≥100 ng/mL and transferrin saturation (TSAT) ≥20% at Screening. • Folate and vitamin B12 measurements lower limit of normal at Screening. • Understands the procedures and requirements of the study and provides written informed consent and authorization for protected health information disclosure.
Exclusion Criteria: Subjects were excluded if they met any of the following criteria: • Anemia due to a cause other than CKD or subjects with active bleeding or recent blood loss. • Subjects with sickle cell disease, myelodysplastic syndromes, bone marrow fibrosis, hematologic malignancy, myeloma, hemolytic anemia, thalassemia, or pure red cell aplasia. • Red blood cell (RBC) transfusion within 8 weeks prior to randomization. • Anticipated to recover adequate kidney function to no longer require dialysis. • Aspartate aminotransferase (AST)/serum glutamic oxaloacetic transaminase (SGOT), alanine aminotransferase (ALT)/serum glutamic pyruvic transaminase (SGPT), or total bilirubin >2.0×upper limit of normal (ULN) at or during Screening. […]

[2] = tested on: subjects receiving hemodialysis, previously maintained on epoetin alfa; experiment: Open-label Phase 2 trial in subjects receiving hemodialysis previously maintained on epoetin alfa
Method: The primary endpoint was mean hemoglobin (Hb) change from pre-baseline average to midtrial (Weeks 7-8) and end-of trial (Weeks 15-16) and was analyzed using available data (no imputation).

O=C(O)CNC(=O)c1ncc(-c2cccc(Cl)c2)cc1O [Compound 1, Vadadustat] was tested, and the “Ferritin, mean” value ([1]; Baseline) was 469.72 ng/mL, the “Hepcidin, mean” value ([1]; Baseline) was 122.43 ng/mL and the “TSAT, mean” value ([1]; Baseline) was 31.32%. For the same compound, the “Ferritin, mean” value ([1]; Weeks 24-36) was 495.73 ng/mL, the “Hepcidin, mean” value ([1]; Weeks 24-36) was 96.05 ng/mL and the “TSAT, mean” value ([1]; Weeks 24-36) was 31.65%. The “Ferritin, mean” value ([1]; Weeks 40-52) was 555.47 ng/mL, the “Hepcidin, mean” value ([1]; Weeks 40-52) was 95.73 ng/mL and the “TSAT, mean” value ([1]; Weeks 40-52) was 33.11%. For the same compound, the “proportion of patients requiring RBC transfusions” value ([1]; weeks 24-36) was 1.3%, the “proportion of patients with an average hemoglobin value within the geography-specific target range” value ([1]; weeks 24-36) was 43.6% and the “mean (SEM) change from baseline in hemoglobin” value ([1]; weeks 24 to 36) was 1.26 (0.11) g/dL. The “mean difference between groups (vadadustat vs darbepoetin alfa) in change from baseline in hemoglobin” value ([1]; weeks 24 to 36) was −0.31 (0.11) g/dL, the “proportion of patients requiring RBC transfusions” value ([1]; weeks 40-52) was 2.4% and the “proportion of patients with an average hemoglobin value within the geography-specific target range” value ([1]; weeks 40-52) was 39.8%. For the same compound, the “mean (SEM) change from baseline in hemoglobin” value ([1]; weeks 40 to 52) was 1.42 (0.132) g/dL, the “mean difference between groups (vadadustat vs darbepoetin alfa) in change from baseline in hemoglobin” value ([1]; weeks 40 to 52) was −0.07 (0.13) g/dL and the “subjects with an Hb excursion>13 g/dL” value ([2]; all cohorts) was “one”. The “mean change in Hb from pre-baseline average” value ([2]; all dose cohorts (300 mg QD, 450 mg QD, 450 mg TIW), Weeks 7-8 and 15-16) was “no statistically significant mean change”, the “serious AEs attributed to study drug” value ([2]; human, in vivo) was “No serious AEs” and the diarrhea ([2]; overall) was 10.6%. The nausea ([2]; overall) was 11.7%, the “subjects who experienced an adverse event (AE)” value ([2]; overall) was 83% and the vomiting ([2]; overall) was 9.6%.
